Test results from patent US20240217989A1, “Heteroaryl Fluoroalkenes As DGK Inhibitors” (Incyte Corporation, priority 2022, published 2024).

Key:
DGKζ = DGKζ (Homo sapiens, UniProt Q13574); assay: In vitro DGKζ inhibition assay (ADP-Glo); format: biochemical; settings: His-tagged human recombinant enzyme; 0.4 nM DGKζ, 30 μM ATP, 20 μM DLG; 90 minute incubation; ADP-Glo luminescence
Experimental: (§1) The DGKα and DGKζ biochemical reactions were performed using His-tagged human recombinant enzymes (Signal Chem, DGKα, #D21-10BH; DGKζ, #D30-10H)) and DLG (Dilauroyl-sn-glycerol) lipid substrate (Signal Chem, #D430-59). ADP-Glo assay was performed using ADP-Glo™ kinase Assay kit (Promega, #V9104). The reactions were carried out in assay buffer containing 40 mM Tris, pH 7.5, 0.1% CHAPS, 0.1% Prionex, 40 mM NaCl, 5 mM MgCl2, 1 mM CaCl2, and 1 mM DTT. DGKα reactions contained 0.1 nM DGKα, 50 μM ATP, and 20 μM DLG. And DGKζ reactions contained 0.4 nM DGKζ, 30 μM ATP, and 20 μM DLG. For compound inhibition studies, 40 nL test compound in DMSO was added to wells of white polystyrene plates in 384-well (Greiner, #784075) or 1536-well format (Greiner, #782075). Compounds were added with top concentration of 2 mM with 11 point, 3-fold dilution series. Enzyme solution (contains 2× DGK enzyme concentration in 1× assay buffer) was added to the plate in 2 μL/well volume, followed by 2 μL/well of substrate solution (contains 2× concentration of ATP and DLG substrate in 1× assay buffer). Plates were then centrifuged for 1 min at 1200 RPM and sealed or lidded. For 4 μL reaction volume, test compounds were therefore diluted 100× to final top concentration of 20 μM. After 90 minute incubation, reactions were quenched by addition of 2 μL/well Promega ADP-Glo Reagent, followed by centrifugation and lidding. After 60 min incubation, 2 μL/well Promega Kinase Detection Reagent was added, plates centrifuged, and incubated for 30 min. Plates were then read using Luminescence method on BMG PHERAstar FSX plate reader. Percent inhibition was calculated and IC50s were determined using 4-parameter fit in Genedata Screener. Labcyte Echo acoustic dispenser was used for compound addition, and Formulatrix Tempest liquid handler was used for all reagent dispenses.

DGKα = target: T1, DGKα (Homo sapiens, UniProt P23743); assay: In vitro DGKα inhibition assay (ADP-Glo); format: biochemical; settings: His-tagged human recombinant enzyme; 0.1 nM DGKα, 50 μM ATP, 20 μM DLG; 90 minute incubation; ADP-Glo luminescence
T1 construct: His; purchased Signal Chem D21-10BH
T1 sequence (P23743 whole entry): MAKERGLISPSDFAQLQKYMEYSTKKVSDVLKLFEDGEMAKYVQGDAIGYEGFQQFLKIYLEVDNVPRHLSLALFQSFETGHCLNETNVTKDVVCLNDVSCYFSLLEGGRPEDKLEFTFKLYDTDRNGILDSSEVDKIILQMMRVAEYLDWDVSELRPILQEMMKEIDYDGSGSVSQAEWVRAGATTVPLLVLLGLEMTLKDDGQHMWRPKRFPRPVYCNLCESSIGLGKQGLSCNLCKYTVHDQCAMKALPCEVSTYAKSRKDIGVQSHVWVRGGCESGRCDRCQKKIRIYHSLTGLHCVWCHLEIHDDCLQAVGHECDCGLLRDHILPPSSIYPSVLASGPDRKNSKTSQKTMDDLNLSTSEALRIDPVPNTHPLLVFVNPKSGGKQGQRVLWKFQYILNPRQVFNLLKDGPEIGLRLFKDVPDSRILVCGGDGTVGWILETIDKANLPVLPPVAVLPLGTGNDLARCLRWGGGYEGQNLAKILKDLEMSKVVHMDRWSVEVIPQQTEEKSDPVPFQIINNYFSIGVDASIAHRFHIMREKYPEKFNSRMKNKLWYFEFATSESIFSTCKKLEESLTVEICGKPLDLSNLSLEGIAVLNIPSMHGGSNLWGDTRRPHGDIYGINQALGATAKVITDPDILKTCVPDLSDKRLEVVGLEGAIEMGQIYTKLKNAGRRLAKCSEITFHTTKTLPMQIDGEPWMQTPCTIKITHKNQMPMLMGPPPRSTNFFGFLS
Experimental: as §1

DGKζ, sequence (Q13574 whole entry): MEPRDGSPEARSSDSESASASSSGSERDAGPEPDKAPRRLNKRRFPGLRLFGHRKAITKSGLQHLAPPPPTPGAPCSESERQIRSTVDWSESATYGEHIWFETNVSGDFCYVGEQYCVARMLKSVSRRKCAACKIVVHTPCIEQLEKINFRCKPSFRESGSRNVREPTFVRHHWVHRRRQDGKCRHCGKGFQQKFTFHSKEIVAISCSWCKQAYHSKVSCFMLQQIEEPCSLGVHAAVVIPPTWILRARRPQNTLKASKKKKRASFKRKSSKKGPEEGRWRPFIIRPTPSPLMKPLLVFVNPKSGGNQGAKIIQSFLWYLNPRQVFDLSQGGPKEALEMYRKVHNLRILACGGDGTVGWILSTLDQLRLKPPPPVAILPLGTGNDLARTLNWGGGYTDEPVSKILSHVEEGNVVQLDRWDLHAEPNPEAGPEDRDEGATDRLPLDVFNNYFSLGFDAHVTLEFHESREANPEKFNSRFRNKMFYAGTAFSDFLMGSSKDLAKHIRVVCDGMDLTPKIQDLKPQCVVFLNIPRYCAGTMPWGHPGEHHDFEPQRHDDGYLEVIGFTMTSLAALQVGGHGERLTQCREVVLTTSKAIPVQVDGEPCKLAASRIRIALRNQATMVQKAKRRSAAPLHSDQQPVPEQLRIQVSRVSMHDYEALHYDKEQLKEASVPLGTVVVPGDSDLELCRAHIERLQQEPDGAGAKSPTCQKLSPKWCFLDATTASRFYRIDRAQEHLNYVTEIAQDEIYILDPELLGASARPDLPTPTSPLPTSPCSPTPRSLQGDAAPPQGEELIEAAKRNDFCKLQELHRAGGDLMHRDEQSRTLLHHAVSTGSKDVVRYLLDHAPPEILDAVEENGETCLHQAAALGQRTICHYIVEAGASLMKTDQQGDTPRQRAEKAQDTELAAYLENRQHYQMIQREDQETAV

Compound | IC50 (DGKζ) [nM] | IC50 (DGKα) [nM]
[2H]c1c([2H])c([2H])c(Oc2ccc(/C=C(\F)c3cncc(N4CCC(F)(F)C4)n3)c(N3CCCC4(CCN(CC)CC4)C3)c2C(F)(F)F)c([2H])c1[2H] [Example 22, (Z)-2-(6-(2-(6-(3,3-Difluoropyrrolidin-1-yl)pyrazin-2-yl)-2-fluorovinyl)-3-(phenoxy-d5)-2-(trifluoromethyl)phenyl)-9-ethyl-2,9-diazaspiro[5.5]undecane] | ≤ 20 | ≤ 20
F/C(=C\c1ccc(Oc2ccccc2)c(C(F)(F)F)c1N1CCOC2(CCN(CC3CC3)CC2)C1)c1nccc(-c2ccnnc2)n1 [Example 23, (Z)-9-(Cyclopropylmethyl)-4-(6-(2-fluoro-2-(4-(pyridazin-4-yl)pyrimidin-2-yl)vinyl)-3-phenoxy-2-(trifluoromethyl)phenyl)-1-oxa-4,9-diazaspiro[5.5]undecane] | ≤ 20 | 20 to 200
CCN1CCC2(CC1)CN(c1c(/C=C(\F)c3nccc(-c4ccnnc4)n3)ccc(Oc3ccccc3)c1C(F)(F)F)CCO2 [Example 24, (Z)-9-Ethyl-4-(6-(2-fluoro-2-(4-(pyridazin-4-yl)pyrimidin-2-yl)vinyl)-3-phenoxy-2-(trifluoromethyl)phenyl)-1-oxa-4,9-diazaspiro[5.5]undecane] | ≤ 20 | ≤ 20
COCCN1CCC2(CC1)CN(c1c(/C=C(\F)c3nccc(-c4ccnnc4)n3)ccc(Oc3ccccc3)c1C(F)(F)F)CCO2 [Example 25, (Z)-4-(6-(2-Fluoro-2-(4-(pyridazin-4-yl)pyrimidin-2-yl)vinyl)-3-phenoxy-2-(trifluoromethyl)phenyl)-9-(2-methoxyethyl)-1-oxa-4,9-diazaspiro[5.5]undecane] | ≤ 20 | ≤ 20
COCCN1CCC2(CC1)CN(c1c(/C=C(\F)c3cccc(-c4ccnnc4)n3)ccc(Oc3ccccc3)c1C(F)(F)F)CCO2 [Example 26, (Z)-4-(6-(2-Fluoro-2-(6-(pyridazin-4-yl)pyridin-2-yl)vinyl)-3-phenoxy-2-(trifluoromethyl)phenyl)-9-(2-methoxyethyl)-1-oxa-4,9-diazaspiro[5.5]undecane] | ≤ 20 | ≤ 20
F/C(=C\c1ccc(Oc2ccccc2)c(C(F)(F)F)c1N1CCOC2(CCN(CC3CC3)CC2)C1)c1cccc(-c2ccnnc2)n1 [Example 27, (Z)-9-(Cyclopropylmethyl)-4-(6-(2-fluoro-2-(6-(pyridazin-4-yl)pyridin-2-yl)vinyl)-3-phenoxy-2-(trifluoromethyl)phenyl)-1-oxa-4,9-diazaspiro[5.5]undecane] | ≤ 20 | ≤ 20
F/C(=C\c1ccc(Oc2ccccc2)c(C(F)(F)F)c1N1CCCC2(CCN(CC3CC3)CC2)C1)c1nccc(-c2ccnnc2)n1 [Example 28, (Z)-9-(Cyclopropylmethyl)-2-(6-(2-fluoro-2-(4-(pyridazin-4-yl)pyrimidin-2-yl)vinyl)-3-phenoxy-2-(trifluoromethyl)phenyl)-2,9-diazaspiro[5.5]undecane] | ≤ 20 | ≤ 20
F/C(=C\c1ccc(Oc2ccccc2)c(C(F)(F)F)c1N1CCCC2(CCN(CC3CC3)CC2)C1)c1cncc(-c2ccnnc2)n1 [Example 29, (Z)-9-(Cyclopropylmethyl)-2-(6-(2-fluoro-2-(6-(pyridazin-4-yl)pyrazin-2-yl)vinyl)-3-phenoxy-2-(trifluoromethyl)phenyl)-2,9-diazaspiro[5.5]undecane] | ≤ 20 | ≤ 20
F/C(=C\c1ccc(Oc2ccccc2)c(C(F)(F)F)c1N1CCCC2(CCN(C3CCC3)CC2)C1)c1nccc(-c2ccnnc2)n1 [Example 30, (Z)-9-Cyclobutyl-2-(6-(2-fluoro-2-(4-(pyridazin-4-yl)pyrimidin-2-yl)vinyl)-3-phenoxy-2-(trifluoromethyl)phenyl)-2,9-diazaspiro[5.5]undecane] | ≤ 20 | ≤ 20
COCCN1CCC2(CCCN(c3c(/C=C(\F)c4nccc(-c5ccnnc5)n4)ccc(Oc4ccccc4)c3C(F)(F)F)C2)CC1 [Example 31, (Z)-2-(6-(2-Fluoro-2-(4-(pyridazin-4-yl)pyrimidin-2-yl)vinyl)-3-phenoxy-2-(trifluoromethyl)phenyl)-9-(2-methoxyethyl)-2,9-diazaspiro[5.5]undecane] | ≤ 20 | ≤ 20
CCN1CCC2(CCCN(c3c(/C=C(\F)c4nccc(-c5ccnnc5)n4)ccc(Oc4ncccc4F)c3C(F)(F)F)C2)CC1 [Example 32, (Z)-9-Ethyl-2-(6-(2-fluoro-2-(4-(pyridazin-4-yl)pyrimidin-2-yl)vinyl)-3-((3-fluoropyridin-2-yl)oxy)-2-(trifluoromethyl)phenyl)-2,9-diazaspiro[5.5]undecane] | ≤ 20 | ≤ 20
CCN1CCC2(CCCN(c3c(/C=C(\F)c4cccc(-c5ccnnc5)n4)ccc(Oc4ncccc4F)c3C(F)(F)F)C2)CC1 [Example 33, (Z)-9-Ethyl-2-(6-(2-fluoro-2-(6-(pyridazin-4-yl)pyridin-2-yl)vinyl)-3-((3-fluoropyridin-2-yl)oxy)-2-(trifluoromethyl)phenyl)-2,9-diazaspiro[5.5]undecane] | ≤ 20 | ≤ 20
CCN1CCC2(CC1)CN(c1c(/C=C(\F)c3cncc(-c4ccnnc4)n3)ccc(Oc3cccc(F)c3)c1C(F)(F)F)CCO2 [Example 34, (Z)-9-Ethyl-4-(6-(2-fluoro-2-(6-(pyridazin-4-yl)pyrazin-2-yl)vinyl)-3-(3-fluorophenoxy)-2-(trifluoromethyl)phenyl)-1-oxa-4,9-diazaspiro[5.5]undecane] | ≤ 20 | ≤ 20
CCN1CCC2(CC1)CN(c1c(/C=C(\F)c3cncc(-c4ccnnc4)n3)ccc(Oc3ccccc3F)c1C(F)(F)F)CCO2 [Example 35, (Z)-9-Ethyl-4-(6-(2-fluoro-2-(6-(pyridazin-4-yl)pyrazin-2-yl)vinyl)-3-(2-fluorophenoxy)-2-(trifluoromethyl)phenyl)-1-oxa-4,9-diazaspiro[5.5]undecane] | ≤ 20 | ≤ 20
F/C(=C\c1ccc(Oc2ccccc2F)c(C(F)(F)F)c1N1CCOC2(CCN(CC3CC3)CC2)C1)c1cncc(-c2ccnnc2)n1 [Example 36, (Z)-9-(Cyclopropylmethyl)-4-(6-(2-fluoro-2-(6-(pyridazin-4-yl)pyrazin-2-yl)vinyl)-3-(2-fluorophenoxy)-2-(trifluoromethyl)phenyl)-1-oxa-4,9-diazaspiro[5.5]undecane] | ≤ 20 | 20 to 200
F/C(=C\c1ccc(Oc2ccccc2F)c(C(F)(F)F)c1N1CCCC2(CCN(CC3CC3)CC2)C1)c1cncc(-c2ccnnc2)n1 [Example 37, (Z)-9-(Cyclopropylmethyl)-2-(6-(2-fluoro-2-(6-(pyridazin-4-yl)pyrazin-2-yl)vinyl)-3-(2-fluorophenoxy)-2-(trifluoromethyl)phenyl)-2,9-diazaspiro[5.5]undecane] | ≤ 20 | ≤ 20
F/C(=C\c1ccc(Oc2ccc(F)cc2F)c(C(F)(F)F)c1N1CCCC2(CCN(CC3CC3)CC2)C1)c1cncc(-c2ccnnc2)n1 [Example 38, (Z)-9-(Cyclopropylmethyl)-2-(3-(2,4-difluorophenoxy)-6-(2-fluoro-2-(6-(pyridazin-4-yl)pyrazin-2-yl)vinyl)-2-(trifluoromethyl)phenyl)-2,9-diazaspiro[5.5]undecane] | ≤ 20 | ≤ 20
F/C(=C\c1ccc(Oc2ccccc2F)c(C(F)(F)F)c1N1CCCC2(CCN(CC3CC3)CC2)C1)c1nccc(-c2ccnnc2)n1 [Example 39, (Z)-9-(Cyclopropylmethyl)-2-(6-(2-fluoro-2-(4-(pyridazin-4-yl)pyrimidin-2-yl)vinyl)-3-(2-fluorophenoxy)-2-(trifluoromethyl)phenyl)-2,9-diazaspiro[5.5]undecane] | ≤ 20 | ≤ 20
CCN1CCC2(CCCN(c3c(/C=C(\F)c4nccc(-c5ccnnc5)n4)ccc(Oc4ccccc4F)c3C(F)(F)F)C2)CC1 [Example 40, (Z)-9-Ethyl-2-(6-(2-fluoro-2-(4-(pyridazin-4-yl)pyrimidin-2-yl)vinyl)-3-(2-fluorophenoxy)-2-(trifluoromethyl)phenyl)-2,9-diazaspiro[5.5]undecane] | ≤ 20 | ≤ 20
CCN1CCC2(CC1)CN(c1c(/C=C(\F)c3nccc(-c4ccnnc4)n3)ccc(Oc3ccccc3F)c1C(F)(F)F)CCO2 [Example 41, (Z)-9-Ethyl-4-(6-(2-fluoro-2-(4-(pyridazin-4-yl)pyrimidin-2-yl)vinyl)-3-(2-fluorophenoxy)-2-(trifluoromethyl)phenyl)-1-oxa-4,9-diazaspiro[5.5]undecane] | ≤ 20 | ≤ 20
